From patent US6555356B2, “Methods for microbial regulation” (Unisearch Limited, priority 1995, dated 2003)
Converted amounts (≈) assume the structure as drawn. “Also recorded” adds a separate entry of the source.

Tests used:
Assay type in all cases: cell-based
Vibrio harveyi [1] = assay: Vibrio harveyi bioluminescence assay; conditions: 100 μg/ml, visual inspection of agar plates
Procedure: (§1) Initial assays for both strains of Vibrio were streaked onto LB agar plates (with 2% NaCl) with and without furanone compounds 1-4 at 5-100 μg/ml. Bioluminescence of the plates was visually assessed after 24 hours of incubation at room temperature. In subsequent assays, both strains were grown in liquid culture in the presence of furanones. Bioluminescence was assayed via a luminometer. The effects of furanones on growth of both strains were assayed as above.

Serratia liquefaciens [2] = assay: Serratia liquefaciens swarming assay; conditions: 5-100 μg/ml in LB agar (0.7%) plates
Procedure: (§2) Serratia liquefaciens was grown in liquid LB medium at room temperature to an optical density of 0.3 at 450 nm and stable inoculated onto LB agar (0.7% agar) plates. Plates were incubated at 30° C. and observed regularly for swarming behaviour. The effect on swarming of furanone compounds was tested by adding (after sterilisation and cooling of the agar) compounds 1-13 (FIG. 3). in the concentration range of 5-100 μg/ml, to the plates.

strain R86 [3] = assay: Marine isolate growth in liquid media, strain R86
Procedure: (§3) The effect on growth of Serratia liquefaciens by furanone compounds was also measured in liquid LB medium by comparing growth of cultures without the addition of compounds versus growth of cultures with added furanone compounds (100 μg/ml of compounds 1-13 (FIG. 3) in separate cultures). Growth was measured as optical density at 450 nm and followed over a 48 hr period.
(§4) Methods followed those described for Serratia liquefaciens (above). Inhibition of growth of these bacteria by furanones was assessed as above.

strain R12 [4] = assay: Marine isolate growth in liquid media, strain R12
Procedure: as §3, §4

Vibrio harveyi [5] = assay: Growth of Vibrio harveyi
Procedure: as §3, §1

Helminthosporium sp. = assay: Fungal growth inhibition zone assay, Helminthosporium sp.
Procedure: (§5) In addition to the tests described above, the effects of selected compounds of the general formula 2 on growth of bacteria, one yeast (Candida albicans) and one fungus (Helminthosporium sp.) were assessed. Bacteria were grown in liquid media in the presence of different concentrations of furanones and growth measured via changes in optical density (OD). Fungal assays were done by inoculating agar plates with spores. These plates contained different concentrations of furanone compounds in wells within the plates. Zones of inhibition around these wells were measured after 48 hours.

Serratia liquefaciens [6] = assay: Serratia liquefaciens exoprotease assay (skim milk agar clearing zones); conditions: 100 μg/ml; for exoprotease activity of the wild type: Serratia liquefaciens wild type; for Effect on HSL phenotype: exoenzymes (exoprotease production): Serratia liquefaciens
Procedure: For assays of production of exoproteases by Serratia liquifaciens the bacteria were cultured as above and inoculated in liquid LB medium. The effects of furanone compounds were tested by adding compounds 3 and 4 (FIG. 3) at 100 μg/ml. Aliquots were withdrawn from the cultures, centrifuged and sterile filtered. Sixty microliters of supernatant were added to wells in skim milk agar plates (1.5% skim milk in M9 medium). Plates were incubated at room temperature and observed for clearing zones around the wells.

strain V54 [7] = assay: Marine isolate growth in liquid media, strain V54
Procedure: as §3, §4

strain V21 [8] = assay: Marine isolate swimming, strain V21
strain V55 [9] = assay: Marine isolate swarming, strain V55
Procedure: as §2, §4

strain R86 [10] = assay: Marine isolate swarming, strain R86
Procedure: as §2, §4

strain R86 [11] = assay: Marine isolate swimming, strain R86
Vibrio fisheri [12] = assay: Vibrio fisheri bioluminescence assay; conditions: 100 μg/ml, visual inspection of agar plates
Procedure: as §1

strain R12 [13] = assay: Marine isolate swimming, strain R12
strain R130 [14] = assay: Marine isolate swimming, strain R130
strain V54 [15] = assay: Marine isolate swarming, strain V54
Procedure: as §2, §4

strain V21 [16] = assay: Marine isolate swarming, strain V21
Procedure: as §2, §4

Candida albicans = assay: Fungal growth inhibition zone assay, Candida albicans
Procedure: as §5

Serratia liquefaciens [17] = assay: Growth of Serratia liquefaciens in liquid LB medium; conditions: 100 μg/ml
Procedure: as §3

strain V55 [18] = assay: Marine isolate swimming, strain V55
Erwinia carotovora [19] = assay: Growth of Erwinia carotovora
Vibrio fisheri [20] = assay: Growth of Vibrio fisheri
Procedure: as §3, §1

Pseudomonas aeruginosa [21] = assay: Pseudomonas aeruginosa (elastase) assay; conditions: 100 μg/ml in elastin agar
Procedure: (§6) Inoculants from precultures were streaked onto Peptone-Tryptic Soy Broth agar containing 0.3% elastin. Plates were incubated at 37° C. and observed for hydrolysis of the elastin. The effect of furanone compounds was assess by adding compounds 1-4 (100 μg/ml) to the plates and comparing zones of hydrolysis in plates with and without the compounds.

Pseudomonas aeruginosa [22] = assay: Growth of Pseudomonas aeruginosa on plates; conditions: 100 μg/ml
Procedure: as §6

strain V21 [23] = assay: Marine isolate growth in liquid media, strain V21
Procedure: as §3, §4

Erwinia carotovora [24] = assay: Erwinia carotovora (exoenzyme) assay on potato slices
Procedure: Inoculants from precultured E. carotovora were added to slices of potatoes. Degradation (softening and browning) of the potato was compared on slices with and without furanone compounds (3 and 4).

strain V55 [25] = assay: Marine isolate growth in liquid media, strain V55
Procedure: as §3, §4

strain R130 [26] = assay: Marine isolate swarming, strain R130
Procedure: as §2, §4

strain R12 [27] = assay: Marine isolate swarming, strain R12
Procedure: as §2, §4

strain V54 [28] = assay: Marine isolate swimming, strain V54
strain R130 [29] = assay: Marine isolate growth in liquid media, strain R130
Procedure: as §3, §4

Proteus mirabilis [30] = assay: Proteus mirabilis growth; conditions: concentrations inhibitory to swarming, 37 C
Procedure: as §4

Proteus mirabilis [31] = assay: Proteus mirabilis swarming assay; conditions: LB10 with 1.5% agar
[32] = test system: Chromobacterium violencia; assay: Growth of Chromobacterium violencia; conditions: 100 μg/ml
Procedure: as §3
A mutant of Chromobacterium violencia negative for the HSL auto inducer was used in the assay. The strain was pour plated in LB medium at high density and wells were punched after the media had set. Sterile, filtered supernatants from various HSL producing strains were added to the wells. Plates were incubated at 30° C. and observed for the formation of purple zones (due to […]) around the wells. The effects of furanone compounds 1 and 2 (FIG. 3) were assessed by running this assay on plates of LB medium containing furanone compounds at a concentration of 100 μg/ml. The effects of the compounds on growth of Chromobacterium were assessed as above.

Proteus mirabilis [33] = assay: Proteus mirabilis swimming; conditions: concentrations inhibitory to swarming, LB10 with 0.3% agar

| Structure (SMILES) | Effect on HSL phenotype: swarming (Serratia liquefaciens [2]) | Minimum inhibitory concentration, Growth (strain R86 [3]) | Minimum inhibitory concentration, Growth (strain R12 [4]) | Effect on bacterial growth (Vibrio harveyi [5]) | exoprotease activity of the wild type (Serratia liquefaciens [6]) | Effect on HSL phenotype: exoenzymes (exoprotease production) (Serratia liquefaciens [6]) | Minimum inhibitory concentration, Growth (strain V54 [7]) | Minimum inhibitory concentration, Swimming (strain V21 [8]) | Minimum inhibitory concentration, Swarming (strain V55 [9]) | Minimum inhibitory concentration, Swarming (strain R86 [10]) | Minimum inhibitory concentration, Swimming (strain R86 [11]) | Minimum inhibitory concentration, Swimming (strain R12 [13]) | Minimum inhibitory concentration, Swimming (strain R130 [14]) | Minimum inhibitory concentration, Swarming (strain V54 [15]) | Minimum inhibitory concentration, Swarming (strain V21 [16]) | Effect on bacterial growth (Serratia liquefaciens [17]) | Minimum inhibitory concentration, Swimming (strain V55 [18]) | Effect on bacterial growth (Erwinia carotovora [19]) | Effect on bacterial growth (Vibrio fisheri [20]) | Effect on HSL phenotype: elastase (Pseudomonas aeruginosa [21]) | also measured |
| --- | --- | --- | --- | --- | --- | --- | --- | --- | --- | --- | --- | --- | --- | --- | --- | --- | --- | --- | --- | --- | --- |
| CCCC(OC(C)=O)C1=C(Br)C(=CBr)OC1=O (stereo not shown) [Compound 3] | inhibit | >50 µg/mL | >50 µg/mL | no effect | 3 and 4 decreases | inhibit; also recorded: decrease/ | 25 µg/mL (≈ 67.9 µM) | 25 µg/mL (≈ 67.9 µM) | 5 µg/mL (≈ 13.6 µM) | 5 µg/mL (≈ 13.6 µM) | >50 µg/mL | 50 µg/mL (≈ 136 µM) | >50 µg/mL | 5 µg/mL (≈ 13.6 µM) | 5 µg/mL (≈ 13.6 µM) | no effect | 5 µg/mL (≈ 13.6 µM) | no effect | no effect | inhibited; also recorded: delay/ | Effect on HSL phenotype: luminescence (Vibrio harveyi [1]): inhibit; width of inhibition zone (Helminthosporium sp.; amount added 0.1 μg): 0 mm; width of inhibition zone (Helminthosporium sp.; amount added 1 μg): 0 mm; width of inhibition zone (Helminthosporium sp.; amount added 10 μg): 6-9 mm; width of inhibition zone (Helminthosporium sp.; amount added 100 μg): 6-20 mm; Effect on HSL phenotype: luminescence (Vibrio fisheri [12]): inhibit; width of inhibition zone (Candida albicans; amount added 0.1 μg): 0 mm; width of inhibition zone (Candida albicans; amount added 1 μg): 0 mm; width of inhibition zone (Candida albicans; amount added 10 μg): 1-2 mm; width of inhibition zone (Candida albicans; amount added 100 μg): 2-3 mm; Effect on bacterial growth (Pseudomonas aeruginosa [22]): no effect; Minimum inhibitory concentration, Growth (strain V21 [23]): 5 µg/mL (≈ 13.6 µM); Effect on HSL phenotype: exoenzymes (Erwinia carotovora [24]): no effect; Minimum inhibitory concentration, Growth (strain V55 [25]): 5 µg/mL (≈ 13.6 µM); Minimum inhibitory concentration, Swarming (strain R130 [26]): 25 µg/mL (≈ 67.9 µM); Minimum inhibitory concentration, Swarming (strain R12 [27]): 5 µg/mL (≈ 13.6 µM); Minimum inhibitory concentration, Swimming (strain V54 [28]): 5 µg/mL (≈ 13.6 µM); Minimum inhibitory concentration, Growth (strain R130 [29]): 25 µg/mL (≈ 67.9 µM) |
| CCCC(O)C1=C(Br)C(=CBr)OC1=O (stereo not shown) [Compound 4] | inhibit | 25 µg/mL (≈ 76.7 µM) | 25 µg/mL (≈ 76.7 µM) | no effect | 3 and 4 decreases | inhibit; also recorded: decrease/ | 25 µg/mL (≈ 76.7 µM) | 5 µg/mL (≈ 15.3 µM) | 5 µg/mL (≈ 15.3 µM) | 5 µg/mL (≈ 15.3 µM) | 25 µg/mL (≈ 76.7 µM) | 25 µg/mL (≈ 76.7 µM) | 25 µg/mL (≈ 76.7 µM) | 5 µg/mL (≈ 15.3 µM) | 5 µg/mL (≈ 15.3 µM) | no effect | 5 µg/mL (≈ 15.3 µM) | without inhibiting; also recorded: no effect | no effect | inhibited; also recorded: delay/ | Effect on growth (Proteus mirabilis [30]): did not affect; Effect on swarming (Proteus mirabilis [31]): inhibited; Effect on bacterial growth [32]: inhibit; Effect on bacterial growth (Pseudomonas aeruginosa [22]): no detectable effect; Minimum inhibitory concentration, Growth (strain V21 [23]): 5 µg/mL (≈ 15.3 µM); Effect on HSL phenotype: exoenzymes (Erwinia carotovora [24]): decreases; also recorded: inhibit; Minimum inhibitory concentration, Growth (strain V55 [25]): 25 µg/mL (≈ 76.7 µM); Minimum inhibitory concentration, Swarming (strain R130 [26]): 5 µg/mL (≈ 15.3 µM); Minimum inhibitory concentration, Swarming (strain R12 [27]): 5 µg/mL (≈ 15.3 µM); Effect on swimming (Proteus mirabilis [33]): did not affect; Minimum inhibitory concentration, Swimming (strain V54 [28]): 5 µg/mL (≈ 15.3 µM); Minimum inhibitory concentration, Growth (strain R130 [29]): 25 µg/mL (≈ 76.7 µM) |
